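Step 1: Grow cells in 96-well plates. Step 2: Expose to compound for 48 hours at 5 concentrations. Step 3: Interpolate endpoints linearly; if unreached, use highest concentration. The concentration for 50% growth inhibition is given as GI50. TGI is the concentration that stops growth completely.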
Columns and labels:
Test in all cases: NCI-60 cell line screen, 48 h
[1] = test system: K-562 leukemia
[2] = test system: CAKI-1 renal
[3] = test system: A549 NSCLC
[4] = test system: TK-10 renal
[5] = test system: UO-31 renal
[6] = test system: SK-OV-3 ovarian
[7] = test system: SK-MEL-5 melanoma
[8] = test system: NCI-H226 lung
[9] = test system: MDA-MB-435

SMILES | TGI [1] [µM] | TGI [2] [µM] | TGI [3] [µM] | TGI [4] [µM] | TGI [5] [µM] | TGI [6] [µM] | TGI [7] [µM] | TGI [8] [µM] | TGI [9] [µM] | GI50 [2] [µM]
Nc1ccc(S(=O)(=O)Nc2nc3ccccc3nc2N2CCCCCC2)cc1 | 52 | 82.7 | > 100 | > 100 | 40.8 | > 100 | 30.1 | > 100 | 41.1 | –
CN(C)/N=N/c1nc2c(c(=O)n(C)c(=O)n2C)n1CC(O)CO (stereo not given) | > 100 | > 100 | > 100 | > 100 | > 100 | > 100 | > 100 | > 100 | > 100 | –
COc1cccc(N=N/C(=N\NC(=O)c2ccc(C)cc2)c2ccc(N(CCC#N)CCC#N)cc2C)c1 | > 100 | > 100 | > 100 | > 100 | > 100 | > 100 | > 100 | > 100 | > 100 | –
O=C(Cc1ccc(Cl)c(Cl)c1)NCC1(N2CCCCC2)CCCCC1 | > 100 | > 100 | > 100 | > 100 | > 100 | > 100 | – | – | > 100 | –
COc1cc2cc(C(=O)N3CC(COS(C)(=O)=O)c4ccc(O)cc43)[nH]c2c(OC)c1OC (stereo not given) | – | < 0.0001 | – | 14 | < 0.0001 | – | < 0.0001 | 0.000531 | 0.000212 | < 0.0001
O=C1CC(=O)n2cnc3cccc(c32)N1 | > 100 | > 100 | > 100 | – | > 100 | > 100 | > 100 | > 100 | > 100 | –
NCC(O)CSCc1ccc(Cl)cc1 (stereo not given) | > 100 | > 100 | > 100 | > 100 | > 100 | > 100 | > 100 | > 100 | > 100 | –
COc1cc(C2C3=C(COC3=O)Oc3cc4c(cc32)OCO4)cc(OC)c1O (stereo not given) | 0.402 | 21.6 | > 60.6 | 63.8 | 49.6 | 1.48 | < 0.0187 | 0.215 | – | –
NNC(=O)C1(NC(=O)c2ccccc2)C(c2ccccc2)C(c2ccccc2)=NN1c1ccccc1 (stereo not given) | > 100 | 92 | > 100 | > 100 | > 100 | > 100 | > 100 | > 100 | > 100 | –
COc1ccc(-c2oc3cc(O)cc(O)c3c(=O)c2OC)cc1 | > 100 | 60 | > 100 | > 100 | 56.6 | > 100 | 43.5 | – | > 100 | –
O=[N+]([O-])c1cccc(N=Nc2c(O)c(S(=O)(=O)O)cc3cc(S(=O)(=O)O)ccc23)c1 | > 100 | > 100 | > 100 | > 100 | > 100 | > 100 | > 100 | > 100 | > 100 | –
CN(C)CCn1c(CO)nc2c1c(=O)n(C)c(=O)n2C | > 100 | > 100 | > 100 | > 100 | > 100 | > 100 | > 100 | > 100 | > 100 | –
C#CCn1c(=O)c(C)cn(/C(=C\C(=O)OCC)C(=O)OCC)c1=O | > 100 | 2.86 | 39.2 | 3.44 | 25.5 | > 56.4 | > 100 | 36.1 | 21.2 | –
CN1C(=O)C(O)C[C@@H]1c1ccccc1 (stereo not given in full) | – | > 100 | > 100 | > 100 | > 100 | > 100 | > 100 | > 100 | > 100 | –
CC(C)=CCNc1nc(Cl)nc2nc[nH]c12 | > 100 | > 100 | > 100 | > 100 | > 100 | 46 | > 100 | > 100 | > 100 | –
CC(Oc1ccccc1Cl)C(=O)NN1C(=O)CSC1c1ccccc1 (stereo not given) | > 100 | > 100 | > 100 | > 100 | > 100 | > 100 | > 100 | > 100 | > 100 | –
CC(C)C(C/C=C1\CC(CO)(COC(=O)C2CCCCC2)OC1=O)C(C)C (stereo not given) | 55.6 | 43.8 | 32 | 41.8 | 32.1 | > 100 | > 100 | 38.3 | > 100 | –
O=C(c1cccs1)N1CCN(C(=O)c2cccs2)C1=S | > 45.2 | 15.3 | 19.8 | 19 | 8.5 | 28.9 | 18.2 | 34.7 | 10.2 | –
Cc1ccc(S(=O)(=O)Nn2c(O)c(C#N)c(-c3ccc(Cl)cc3)c(C#N)c2=O)cc1 | > 100 | > 100 | > 100 | > 100 | – | > 100 | > 100 | > 100 | > 100 | –
Cc1ccccc1N=C(N)Nc1ccccc1C | > 100 | > 100 | > 100 | > 100 | – | > 100 | > 100 | > 100 | > 100 | –
CCN(CC)C(=S)SS(=O)(=O)c1cccc(N)c1 | > 100 | > 100 | > 100 | > 100 | > 100 | > 100 | > 100 | > 100 | > 100 | –
O=C(O)COc1cc(-c2ccccc2)nc2cc(F)ccc12 | > 100 | > 100 | > 100 | > 100 | > 100 | > 100 | > 100 | > 100 | > 100 | –
Cc1cc(C)c2c(c1)C(=O)/C(=C/c1ccccc1C(=O)O)C2 | > 100 | > 100 | > 100 | > 100 | > 100 | – | > 100 | > 100 | – | –

— PubChem BioAssay (NCI)
